{
  "source": "patent US6559289B1",
  "about": "“Use of growth hormone or analogues thereof for the treatment of mammals with familial hypercholesterolemia” (Salhtech I Goteborg AB, priority 1998, dated 2003)",
  "key": {"C57BL/6J mice [1]": {"tested_on": "C57BL/6J mice", "experiment": "GH infusion for six days: total plasma cholesterol, triglycerides and total hepatic cholesterol", "format": "in vivo", "conditions": "GH 1 mg/kg/d infusion", "text": "(§1) The studies were approved by the Institutional Animal Care and Use Committee, Sweden. Altogether 75 male LDLRKO and 45 C57 BL/6J mice were purchased from Bommice, Denmark. Animals were housed under standardized conditions in groups of ten. The mice had free access to water and chow; the light cycle hours were between 6 a.m. and 6:00 p.m. At the start of the experiment, osmotic mini pumps containing GH were implanted subcutaneously under light ether anesthesia. Non-GH treated animals were sham-operated. Recombinant human GH (Genotropin®), purchased from Pharmacia & Upjohn, was infused at a rate of 1.0 mg/kg per day. After six days of infusion, animals where anesthetized with ether, and blood was collected from the eye. The mice where thereafter killed by cervical dislocation. The livers were immediately removed and when indicated, 1 g of liver was taken for subsequent preparation of microsomes for assay of enzyme activity as described below. The remaining liver was immediately frozen in liquid nitrogen and stored at −70° C.\n(§2) The total hepatic cholesterol was determined, following extraction and subsequent drying under nitrogen from liver samples, as described (Rudling M. J. Lipid Res. 33: 493-50 1992). Total hepatic and plasma cholesterol and plasma triglycerides were assayed using commercial available methods (Boehringer-Mannheim, Mannheim, Germany).\n(§3) Infusion of GH to C57BL/6J and LDLRKO mice. Two sets of ten animals of each strain were continuously infused at a rate of 1 mg/kg/d. After six days of treatment, animals were killed and plasma and livers were collected.\n(§4) To confirm this surprising finding of a plasma cholesterol lowering effect of GH in LDLR deficient animals with pronounced hypercholesterolemia, the previous experiment was repeated. In addition, we wanted to also determine the enzymatic activities of 3-hydroxy-3-methyl-glutaryl coenzyme A, (HMG CoA) reductase, and cholesterol 7α hydroxylase, (C7αOH), being the rate limiting steps in the synthesis of cholesterol and bile acids, respectively. Animals received the same dose of GH that was infused for six days.\n(§5) FIG. 1 is a graph that depicts total plasma cholesterol, triglycerides and total hepatic cholesterol in normal (C57 BL) and LDLRKO (KO) mice±GH (1 mg/kg/day) for 6 days. Each group consisted of 10 animals. Bars indicate SEM.\n(§6) Each group consisted of 10 animals. Bars indicate SEM."}, "LDLRKO mice [2]": {"tested_on": "LDLRKO mice", "experiment": "GH infusion for six days: total plasma cholesterol, triglycerides and total hepatic cholesterol", "format": "in vivo", "text": "as §1, §2, §3, §4, §5, §6"}, "C57BL/6J mice [3]": {"tested_on": "C57BL/6J mice", "experiment": "FPLC size-fractionation of plasma lipoproteins after GH infusion", "format": "in vivo", "conditions": "pooled plasma, first experiment", "protocol": "(§7) Equal volumes of plasma from each animal were pooled (1-2 mL) and the density was adjusted to 1.21 g/mL with solid KBr. After ultracentrifugation at 10^5 g for 48 h, the supernatant was removed and adjusted with 0.15 M NaCl, 0.01% etylene diamine tetraacetic acid, (EDTA), 0.02% sodium azide, pH 7.3. An aliquot of this solution was injected on a 54×1.8 cm superose 6B column after filtration through a Millipore […] HA filter, 2-mL fractions were collected.\n(§8) FIGS. 2 and 3 show the lipoprotein patterns in the four groups of animals described in legend to FIG. 1. Equal volumes of plasma from each animal were pooled and subjected to ultracentrifugation at density 1.21. The supernatant was thereafter separated on a Superose 6 column and fractionated."}, "LDLRKO mice [4]": {"tested_on": "LDLRKO mice", "experiment": "FPLC size-fractionation of plasma lipoproteins after GH infusion", "format": "in vivo", "protocol": "as §7, §8"}, "LDL receptors": {"tested_on": "LDL receptors", "experiment": "Ligand blot assay of hepatic LDL-receptors after GH treatment", "format": "in vivo", "conditions": "C57BL/6J mice, pooled livers", "protocol": "Ligand blot assay of LDL-receptors was performed using ^125I-labeled rabbit β-migrating very low density lipoprotein (VLDL), as described previously (Rudling et al 1992. PNAS 89; 6983-6987). Membrane proteins were separated by SDS-PAGE (6% poly-acrylamide). After electrotransfer of proteins to nitrocellulose filters and subsequent incubation ^125I-β-VLDL filters were exposed onto DuPont X-ray film at −70° C.\nThe absence of LDL receptors in LDLRKO animals was confirmed by ligand blot of hepatic membranes obtained from pooled livers from each animal group, using β-VLDL as ligand (not shown). The expression of LDL receptors in C57BL/6J mice was not altered by GH treatment."}, "[5]": {"tested_on": "cholesterol 7α hydroxylase (C7αOH)", "experiment": "Enzymatic activity of C7αOH in hepatic microsomes after GH infusion", "format": "in vivo, mice", "conditions": "for increase of C7αOH activity: GH 1 mg/kg/day, six days, hepatic microsomes", "text": "as §1\n(§9) Hepatic microsomes were prepared by differential ultracentrifugation of liver homogenates in the absence of fluoride as previously described (Angelin et al 1984, J Lipid Res. 25; 1159-1166, Einarsson et al. 1986, J. Lipid Res. 27; 82-88, Einarsson et al. 1989, J. Lipid Res. 30; 739-746). Microsomal HMG CoA reductase was assayed from the conversion of [^14C] HMG CoA to mevalonate, and expressed as picomoles formed per mg protein per min. The activity of C7αOH was determined from the formation of 7α-hydroxycholesterol (picomoles/mg protein/min) from endogenous microsomal cholesterol by the use of isotope dilution-mass spectrometry as described in detail. All enzyme assays were carried out in duplicate.\n(§10) The means and standard error of means from three separate pools of all animals are shown."}, "HMG CoA reductase": {"tested_on": "HMG CoA reductase", "experiment": "Enzymatic activity of HMG CoA reductase in hepatic microsomes after GH infusion", "format": "in vivo, mice", "conditions": "for increase of HMG CoA reductase activity: GH 1 mg/kg/day, six days, hepatic microsomes", "text": "as §1, §9, §10"}, "C7αOH mRNA": {"tested_on": "C7αOH mRNA", "experiment": "C7αOH mRNA levels by solution hybridization after GH infusion", "format": "in vivo, mice", "conditions": "GH treatment, liver", "protocol": "(§11) Total nucleic acids were extracted from a sample of liver from each individual and incubated with the respective complementary radio-labeled cRNA probe."}, "HMG CoA reductase mRNA": {"tested_on": "HMG CoA reductase mRNA", "experiment": "HMG CoA reductase mRNA levels by solution hybridization after GH infusion", "format": "in vivo, mice", "conditions": "liver", "protocol": "as §11"}, "LDLRKO mice [6]": {"tested_on": "LDLRKO mice", "experiment": "Cholestyramine, atorvastatin and GH alone and in combination: plasma cholesterol and triglycerides", "format": "in vivo", "conditions": "6 days of treatment"}, "[7]": {"conditions": "LDLRKO mice, GH 1 mg/kg/d infusion, six days"}, "[8]": {"conditions": "repeated experiment, same GH dose, six days (FIG. 4)"}},
  "note": "Entries after “also recorded” stand apart in the source; their conditions may differ.",
  "data": [
    {"substance": "GH: Recombinant human GH (Genotropin), purchased from Pharmacia & Upjohn, infused at 1.0 mg/kg per day", "values": [
      {"measurement": "total plasma cholesterol", "setting": "C57BL/6J mice [1]; C57BL/6J (normal) mice", "result": "no significant effect; also recorded: no reduction"},
      {"measurement": "total plasma triglycerides", "setting": "C57BL/6J mice [1]; C57BL/6J mice", "result": "unaltered"},
      {"measurement": "total hepatic cholesterol", "setting": "C57BL/6J mice [1]; normal C57BL/6J mice", "result": "slightly increased"},
      {"measurement": "reduced plasma cholesterol level", "setting": "LDLRKO mice [2]; LDL-receptor knockout mice, GH infusion", "result": "30-40%"},
      {"measurement": "total hepatic cholesterol", "setting": "LDLRKO mice [2]; [7]", "result": "slight reduction"},
      {"measurement": "total plasma triglycerides", "setting": "LDLRKO mice [2]; [7]", "result": "slight but not significant reduction"},
      {"measurement": "total plasma cholesterol", "setting": "LDLRKO mice [2]; LDLRKO mice, GH 1 mg/kg/d infusion, six days, first experiment", "result": "clearly reduced"},
      {"measurement": "reduction of total plasma cholesterol versus first experiment", "setting": "LDLRKO mice [2]; [8]", "result": "slightly less pronounced"},
      {"measurement": "total plasma cholesterol and triglycerides, and total hepatic cholesterol versus first experiment", "setting": "LDLRKO mice [2]; [8]", "result": "practically identical results"},
      {"measurement": "lipoprotein triglycerides by FPLC size fraction", "setting": "C57BL/6J mice [3]", "result": "increased triglycerides within VLDL particles"},
      {"measurement": "reduction of lipoprotein cholesterol by FPLC size fraction", "setting": "LDLRKO mice [4]; LDLRKO mice, pooled plasma, first experiment (FIG. 2)", "result": "within all size fractions"},
      {"measurement": "reduction in lipoprotein triglycerides by FPLC size fraction", "setting": "LDLRKO mice [4]; LDLRKO mice, pooled plasma, first experiment (FIG. 3)", "result": "only within VLDL particles"},
      {"measurement": "plasma lipoprotein cholesterol by FPLC", "setting": "LDLRKO mice [4]; repeated experiment (FIG. 5)", "result": "lowered plasma lipoprotein cholesterol, particularly within VLDL and LDL particles"},
      {"measurement": "lipoprotein triglycerides by FPLC", "setting": "LDLRKO mice [4]; repeated experiment (FIG. 6)", "result": "not only reduced among VLDL particles but also within LDL and HDL particles"},
      {"measurement": "expression of LDL receptors (ligand blot of hepatic membranes)", "setting": "LDL receptors", "result": "not altered"},
      {"measurement": "increase of C7αOH activity", "setting": "[5]; C57/BL6J mice", "result": 115, "unit": "%"},
      {"measurement": "increase of C7αOH activity", "setting": "[5]; LDLRKO mice", "result": 46, "unit": "%"},
      {"measurement": "enzymatic activity of C7αOH (in words)", "setting": "[5]; LDLRKO mice, GH infusion", "result": "stimulated; also recorded: normalized"},
      {"measurement": "enzymatic activity of C7αOH (in words)", "setting": "[5]; normal mice, GH treatment", "result": "stimulated"},
      {"measurement": "increase of HMG CoA reductase activity", "setting": "HMG CoA reductase; C57/BL6J mice", "result": 53, "unit": "%"},
      {"measurement": "increase of HMG CoA reductase activity", "setting": "HMG CoA reductase; LDLRKO mice", "result": 113, "unit": "%"},
      {"measurement": "enzymatic activity of HMG CoA reductase (in words)", "setting": "HMG CoA reductase; LDLRKO mice, GH infusion", "result": "increased the activity to the same level as found in normal C57BL/6J animals; also recorded: normalized"},
      {"measurement": "reduction in C7αOH mRNA level", "setting": "C7αOH mRNA; C57/BL6J mice", "result": 50, "unit": "%"},
      {"measurement": "increase of C7αOH mRNA level", "setting": "C7αOH mRNA; LDLRKO mice", "result": 170, "unit": "%"},
      {"measurement": "HMG CoA reductase mRNA levels", "setting": "HMG CoA reductase mRNA; C57/BL6J mice", "result": "no effect"},
      {"measurement": "increase of HMG CoA reductase mRNA levels", "setting": "HMG CoA reductase mRNA; LDLRKO mice", "result": 20, "unit": "%"},
      {"measurement": "reduction of plasma cholesterol", "setting": "LDLRKO mice [6]; groups of 5", "result": 10, "unit": "%"},
      {"measurement": "reduction of plasma triglycerides", "setting": "LDLRKO mice [6]; groups of 5", "result": "approx. 20%"}
    ]},
    {"substance": "cholestyramine [reference compound]", "values": [
      {"measurement": "effect on plasma cholesterol (in words)", "setting": "LDLRKO mice [6]; drug alone", "result": "no effects"}
    ]}
  ]
}
